Data as given in patent US4895589A, “Heterocyclic compounds” (Imperial Chemical Industries PLC, priority 1985, dated 1990).

How the values were obtained:
[1] = test system: Tomato; conditions: TO, 4000 ppm, 2-3 weeks
Protocol: (§2) The compounds were tested for plant growth regulator activity against up to tweleve plant species for various growth effects relevant to plant growth regulation.
(§3) Each chemical was applied at 4000 ppm (4 kg/ha in a 1000 l/ha field volume) using a tracksprayer and a SS8004E (Teejet) nozzle.
(§4) After spray, the plants were grown in a glasshouse with 25° C. day/22° C. night temperatures and supplementary lighting was supplied when necessary (from mercury vapour lamps), to provide a 16 hour photoperiod. The exception to this were the temperate cereals, wheat and barley, which were grown in 16° C. day 13° C. night temperatures
(§5) After 2-3 weeks in the glasshouse, depending on the time of year, the plants were visually assessed for morphological characteristics. Formulations blanks were used as controls to assess the Plants.

[2] = test system: Rice; experiment: Intermediate Retardant Test, rice; type: in vivo, Rice (Ishikari); conditions: Oryza sativa, 672 h, ~28 days, Table VII, read-out: Percentage Reduction in Height of Rice (Compared to formulation blank)
Summary of the method: (§1)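 Overall spray at 1000 ppm and 4000 ppm (1 and 4 kg ha^-1, 1000 l/ha), giving foliar plus root exposure; rice in flooded paddy pots, barley and apples in 4" pots. Height measured ~28 days after treatment (ligule for cereals, apex for apples), reported as % reduction versus formulation blank.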

[3] = test system: Cynosurus cristatus; conditions: CC, 4000 ppm, 2-3 weeks
Protocol: as §2, §3, §4, §5

[4] = test system: Maize; conditions: MZ, 4000 ppm, 2-3 weeks
Protocol: as §2, §3, §4, §5

[5] = test system: Sugar beet; conditions: SB, 4000 ppm, 2-3 weeks
Protocol: as §2, §3, §4, §5

[6] = test system: Wheat; conditions: WW, 4000 ppm, 2-3 weeks
Protocol: as §2, §3, §4, §5

[7] = test system: Spring Barley; experiment: Intermediate Retardant Test, spring barley; type: in vivo, Spring Barley (Atem/kym); conditions: Hordeum vulgare, 672 h, ~28 days, Table VIII, read-out: Percentage Reduction in Height of Spring Barley (Compared to formulation blank)
Summary of the method: as §1

[8] = test system: Lettuce; conditions: LT, 4000 ppm, 2-3 weeks
Protocol: as §2, §3, §4, §5

[9] = test system: Apples; experiment: Intermediate Retardant Test, apples; type: in vivo, Apples (Red Delicious); conditions: 672 h, ~28 days, Table IX, read-out: Percentage Reduction in Height of Apples (Compared to formulation blank)
Summary of the method: as §1

[10] = test system: Soya; conditions: SY, 4000 ppm, 2-3 weeks
Protocol: as §2, §3, §4, §5

[11] = test system: Dacrylis glomerata; conditions: DA, 4000 ppm, 2-3 weeks
Protocol: as §2, §3, §4, §5

[12] = test system: plant species of Whole Plant Screen (1) or (2); experiment: Across screen comparison: total retardation relative to paclobutrazol (Whole Plant Screens (1) and (2)); type: in vivo; conditions: compounds of Table I, Table X
Summary of the method: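 Compounds, each tested in Whole Plant Screen (1) or (2), are compared by summing retardation scores over all species tested. Each total is expressed as a percentage of the total retardation from paclobutrazol, the standard run in every test.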

[13] = test system: Radish; conditions: RA, 4000 ppm, 2-3 weeks
Protocol: as §2, §3, §4, §5

[14] = test system: Vines; conditions: VN, 4000 ppm, 2-3 weeks
Protocol: as §2, §3, §4, §5

[15] = test system: Barley; conditions: BR, 4000 ppm, 2-3 weeks
Protocol: as §2, §3, §4, §5

[16] = test system: Agrostis tenius; conditions: AT, 4000 ppm, 2-3 weeks

CCCCC#CC(Cn1cncn1)(OC)C(C)(C)C (centres unmarked) [Compound 2]
Retardation score (1-3) with greening (G), apical damage (A), tillering/side shooting (T) [1]: 1G
Percent reduction in rice plant height vs formulation blank at 1000 ppm [2]: 17.4%
Percent reduction in rice plant height vs formulation blank at 4000 ppm [2]: 34.6%
Retardation score (1-3) with greening (G), apical damage (A), tillering/side shooting (T) [3]: 1G
Retardation score (1-3) with greening (G), apical damage (A), tillering/side shooting (T) [4]: 2GA
Retardation score (1-3) with greening (G), apical damage (A), tillering/side shooting (T) [5]: 1G
Retardation score (1-3) with greening (G), apical damage (A), tillering/side shooting (T) [6]: 2G
height reduction vs blank at 1000 ppm [7]: 0.2%
height reduction vs blank at 4000 ppm [7]: 25.6%
Retardation score (1-3) with greening (G), apical damage (A), tillering/side shooting (T) [8]: 1 (10-30% retardation)
percent reduction in plant height vs formulation blank at 4000 ppm [9]: 12.3%
Retardation score (1-3) with greening (G), apical damage (A), tillering/side shooting (T) [10]: 3GT

CCCCCC#CC(O)(Cn1cncn1)C(C)(C)C (centres unmarked) [Compound 3, 2,2-dimethyl-3-hydroxy-3-(hept-1-yne-1-yl)-4-(1,2,4-triazol-1-yl)-butane]
Retardation score (1-3) with greening (G), apical damage (A), tillering/side shooting (T) [11]: 2G
Total Retardation expressed as a percentage of the total retardation caused by paclobutrazol [12]: 65.6 % of paclobutrazol
Retardation score (1-3) with greening (G), apical damage (A), tillering/side shooting (T) [13]: 3 (61-100% retardation)
Retardation score (1-3) with greening (G), apical damage (A), tillering/side shooting (T) [1]: 2G
Percent reduction in rice plant height vs formulation blank at 1000 ppm [2]: 21.2%
Percent reduction in rice plant height vs formulation blank at 4000 ppm [2]: 40.8%
Retardation score (1-3) with greening (G), apical damage (A), tillering/side shooting (T) [3]: 2G
Retardation score (1-3) with greening (G), apical damage (A), tillering/side shooting (T) [14]: 2GAT
Retardation score (1-3) with greening (G), apical damage (A), tillering/side shooting (T) [4]: 1G
Retardation score (1-3) with greening (G), apical damage (A), tillering/side shooting (T) [5]: 1G
Retardation score (1-3) with greening (G), apical damage (A), tillering/side shooting (T) [15]: 1T
Retardation score (1-3) with greening (G), apical damage (A), tillering/side shooting (T) [6]: 2GT
height reduction vs blank at 1000 ppm [7]: 18.5%
height reduction vs blank at 4000 ppm [7]: 34.7%
Retardation score (1-3) with greening (G), apical damage (A), tillering/side shooting (T) [16]: 2G
percent reduction in plant height vs formulation blank at 1000 ppm [9]: 9.5%
percent reduction in plant height vs formulation blank at 4000 ppm [9]: 25.9%
Retardation score (1-3) with greening (G), apical damage (A), tillering/side shooting (T) [10]: 3GA

CCCCCCC#CC(O)(Cn1cncn1)C(C)(C)C (centres unmarked) [Compound 4, 2,2-dimethyl-3-hydroxy-3-(oct-1-yne-1-yl)-4-(1,2,4-triazol-1-yl)-butane]
Retardation score (1-3) with greening (G), apical damage (A), tillering/side shooting (T) [11]: 1 (10-30% retardation)
Retardation score (1-3) with greening (G), apical damage (A), tillering/side shooting (T) [1]: 2G
Percent reduction in rice plant height vs formulation blank at 4000 ppm [2]: 5.8%
Retardation score (1-3) with greening (G), apical damage (A), tillering/side shooting (T) [14]: 1G
Retardation score (1-3) with greening (G), apical damage (A), tillering/side shooting (T) [4]: 1G
Retardation score (1-3) with greening (G), apical damage (A), tillering/side shooting (T) [6]: 1GT
height reduction vs blank at 1000 ppm [7]: 23.7%
height reduction vs blank at 4000 ppm [7]: 27.5%
Retardation score (1-3) with greening (G), apical damage (A), tillering/side shooting (T) [8]: 2 (21-60% retardation)
percent reduction in plant height vs formulation blank at 1000 ppm [9]: 8.2%
percent reduction in plant height vs formulation blank at 4000 ppm [9]: 21%
Retardation score (1-3) with greening (G), apical damage (A), tillering/side shooting (T) [10]: 1G

CCC(C)C#CC(O)(Cn1cncn1)C(C)(C)C (centres unmarked) [Compound 6, 2,2-dimethyl-3-hydroxy-3-(3-methyl-pent-1-yne-1-yl)-4-(1,2,4-triazol-1-yl)-butane]
Retardation score (1-3) with greening (G), apical damage (A), tillering/side shooting (T) [11]: 1 (10-30% retardation)
Total Retardation expressed as a percentage of the total retardation caused by paclobutrazol [12]: 52.0 % of paclobutrazol
Retardation score (1-3) with greening (G), apical damage (A), tillering/side shooting (T) [1]: 1G
Percent reduction in rice plant height vs formulation blank at 1000 ppm [2]: 11.2%
Percent reduction in rice plant height vs formulation blank at 4000 ppm [2]: 22.7%
Retardation score (1-3) with greening (G), apical damage (A), tillering/side shooting (T) [3]: 1 (10-30% retardation)
Retardation score (1-3) with greening (G), apical damage (A), tillering/side shooting (T) [14]: 2GT
Retardation score (1-3) with greening (G), apical damage (A), tillering/side shooting (T) [5]: 1G
Retardation score (1-3) with greening (G), apical damage (A), tillering/side shooting (T) [15]: 2G
Retardation score (1-3) with greening (G), apical damage (A), tillering/side shooting (T) [6]: 3GT
height reduction vs blank at 1000 ppm [7]: 0.8%
height reduction vs blank at 4000 ppm [7]: 23.5%
Retardation score (1-3) with greening (G), apical damage (A), tillering/side shooting (T) [8]: 1G
Retardation score (1-3) with greening (G), apical damage (A), tillering/side shooting (T) [16]: 1 (10-30% retardation)
percent reduction in plant height vs formulation blank at 1000 ppm [9]: 1.2%
percent reduction in plant height vs formulation blank at 4000 ppm [9]: 38.6%
Retardation score (1-3) with greening (G), apical damage (A), tillering/side shooting (T) [10]: 2GA

CC(C)CCC#CC(O)(Cn1cncn1)C(C)(C)C (centres unmarked) [Compound 8, 2,2-dimethyl-3-hydroxy-3-(5-methyl-hex-1-yne-1-yl)-4-(1,2,4-triazol-1-yl)-butane]
Retardation score (1-3) with greening (G), apical damage (A), tillering/side shooting (T) [11]: 1G
Total Retardation expressed as a percentage of the total retardation caused by paclobutrazol [12]: 60.0 % of paclobutrazol
Retardation score (1-3) with greening (G), apical damage (A), tillering/side shooting (T) [13]: 3G
Retardation score (1-3) with greening (G), apical damage (A), tillering/side shooting (T) [1]: 2G
Percent reduction in rice plant height vs formulation blank at 1000 ppm [2]: 26.6%
Percent reduction in rice plant height vs formulation blank at 4000 ppm [2]: 47.7%
Retardation score (1-3) with greening (G), apical damage (A), tillering/side shooting (T) [3]: 2G
Retardation score (1-3) with greening (G), apical damage (A), tillering/side shooting (T) [14]: 1 (10-30% retardation)
Retardation score (1-3) with greening (G), apical damage (A), tillering/side shooting (T) [4]: 1G
Retardation score (1-3) with greening (G), apical damage (A), tillering/side shooting (T) [15]: 1T
Retardation score (1-3) with greening (G), apical damage (A), tillering/side shooting (T) [6]: 3GT
height reduction vs blank at 1000 ppm [7]: 39.6%
height reduction vs blank at 4000 ppm [7]: 65.8%
Retardation score (1-3) with greening (G), apical damage (A), tillering/side shooting (T) [8]: 1G
Retardation score (1-3) with greening (G), apical damage (A), tillering/side shooting (T) [16]: 1G
percent reduction in plant height vs formulation blank at 1000 ppm [9]: 7.5%
percent reduction in plant height vs formulation blank at 4000 ppm [9]: 26%
Retardation score (1-3) with greening (G), apical damage (A), tillering/side shooting (T) [10]: 3G
